# According to BindingDB's records for doi:10.1111/j.1747-0285.2009.00842.x (Universita Degli Studi Di Firenze, 2009):
# Columns and labels:
# Carbonic anhydrase 7 = Carbonic anhydrase 7 (Homo sapiens, UniProt P43166); experiment: Inhibition Assay; details: pH 7.4; 25 °C
# Carbonic anhydrase 2 = Carbonic anhydrase 2 (Homo sapiens, UniProt P00918); experiment: Inhibition Assay; details: pH 7.4; 25 °C
# Chain of Carbonic anhydrase 7 (P43166 whole entry): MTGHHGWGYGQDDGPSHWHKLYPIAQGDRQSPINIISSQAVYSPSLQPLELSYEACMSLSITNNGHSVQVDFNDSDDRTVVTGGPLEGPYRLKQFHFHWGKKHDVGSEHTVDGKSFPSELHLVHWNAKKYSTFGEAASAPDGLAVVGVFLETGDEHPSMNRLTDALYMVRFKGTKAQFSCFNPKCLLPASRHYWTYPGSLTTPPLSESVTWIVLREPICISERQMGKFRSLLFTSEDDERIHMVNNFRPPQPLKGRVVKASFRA
Ki (Carbonic anhydrase 7),Ki (Carbonic anhydrase 2),SMILES
752 nM,312 nM,"CN(C)S(=O)(=O)c1ccc(N=Nc2ccc(O)cc2)cc1 [p-Phenyldiazenyl derivative, 7]"
68 nM,–,"NS(=O)(=O)c1ccc(Br)cc1 [p-Halide-sulfanilamide derivative, 2a]"
4200 nM,863 nM,"COc1ccc(/N=N/c2ccc(S(=O)(=O)N(C)C)cc2)cc1 [p-Phenyldiazenyl derivative, 6]"
–,17.5 nM,"NS(=O)(=O)c1ccc(Cl)cc1 [p-Halide-sulfanilamide derivative, 2]"
30 nM,–,CN(C)c1ccc(/N=N/c2ccc(S(N)(=O)=O)cc2)cc1
–,81 nM,"NS(=O)(=O)c1ccc(I)cc1 [p-Halide-sulfanilamide derivative, 3]"
706 nM,277 nM,"CNS(=O)(=O)c1ccc(N=Nc2ccc(O)cc2)cc1 [p-Phenyldiazenyl derivative, 8]"
88 nM,–,"NS(=O)(=O)c1ccc(O)cc1 [p-Hydroxy-benzene derivative, 3a]"
